Target: soluble guanylate cyclase (human GUCYA3 and GUCYB3) overexpressed in CHO cells (Homo sapiens (Human), UniProt Q02108+Q02153)
Experiment: CHO cellular assay (cGMP production, Cisbio cGMP HTRF kit)
Assay type: cell-based
Settings: CHO GUCY clone 8E10, cGMP production, assay buffer with 1 mM IBMX and 20 uM ODQ, 1 h room temperature; minimum quantification limit 0.5 nM (listed 0.5 nM means ≤0.5 nM); read-out: EC50
From the text: Chinese hamster ovary (CHO) cells overexpressing soluble guanylate cyclase were generated to test the effect of sGC activators in a cellular context. Human cDNAs for GUCYA3 (RefSeq: NM_000856.3) and GUCYB3 (RefSeq: NM_000857.1) were amplified by PCR from a HUVEC (Human Umbilical Vein Endothelial Cells) cDNA library and cloned into mammalian expression vectors. CHO K1 cells (ATCC CCL-61) were transfected using Lipofectamine 2000 following manufacturer's instructions and stably expressing clones were identified by antibiotic selection. CHO GUCY clone 8E10 was used for subsequent experiments. Cells were seeded at a density of 3000 cells/well in white 384-well proxyplates (Perkin Elmer) and incubated overnight, then the medium was removed and cells were washed with assay buffer (HBSS, 0.1% BSA. 1 mM IBMX, 20 uM ODQ). sGC activators were serially diluted in DMSO, then diluted in assay buffer prior to adding to cells (10 ul/well, final DMSO concentration 0.5%). Cells were incubated with compounds for 1 h room temperature, then assayed for cGMP production using Cisbio cGMP HTRF kit (62GM2PEC) according to manufacturer's instructions. The EC50s are calculated based on the amount of cGMP interpolated from the standard curve, using a 4-parameter sigmoidal dose-response.

Sequence of soluble guanylate cyclase (human GUCYA3 and GUCYB3) overexpressed in CHO cells (Q02108 whole entry partner): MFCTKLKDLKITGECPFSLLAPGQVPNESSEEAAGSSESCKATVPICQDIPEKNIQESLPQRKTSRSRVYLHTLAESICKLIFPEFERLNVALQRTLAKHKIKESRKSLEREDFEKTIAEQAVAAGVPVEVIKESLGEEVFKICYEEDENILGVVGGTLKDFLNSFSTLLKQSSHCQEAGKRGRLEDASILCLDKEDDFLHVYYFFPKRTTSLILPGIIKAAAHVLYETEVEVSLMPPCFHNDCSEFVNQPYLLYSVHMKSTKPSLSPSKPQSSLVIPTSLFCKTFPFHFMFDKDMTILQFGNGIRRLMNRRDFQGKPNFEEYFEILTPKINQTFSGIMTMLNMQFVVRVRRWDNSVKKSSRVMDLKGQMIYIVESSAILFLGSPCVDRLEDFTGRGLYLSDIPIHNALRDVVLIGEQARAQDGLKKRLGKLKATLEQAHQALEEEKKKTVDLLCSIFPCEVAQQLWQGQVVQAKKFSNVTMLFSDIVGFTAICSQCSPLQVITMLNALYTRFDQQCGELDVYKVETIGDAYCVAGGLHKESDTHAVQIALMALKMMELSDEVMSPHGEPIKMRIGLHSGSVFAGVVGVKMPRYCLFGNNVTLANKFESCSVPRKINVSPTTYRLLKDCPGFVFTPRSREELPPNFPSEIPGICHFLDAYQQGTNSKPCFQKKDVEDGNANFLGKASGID
Sequence of soluble guanylate cyclase (human GUCYA3 and GUCYB3) overexpressed in CHO cells (Q02153 whole entry): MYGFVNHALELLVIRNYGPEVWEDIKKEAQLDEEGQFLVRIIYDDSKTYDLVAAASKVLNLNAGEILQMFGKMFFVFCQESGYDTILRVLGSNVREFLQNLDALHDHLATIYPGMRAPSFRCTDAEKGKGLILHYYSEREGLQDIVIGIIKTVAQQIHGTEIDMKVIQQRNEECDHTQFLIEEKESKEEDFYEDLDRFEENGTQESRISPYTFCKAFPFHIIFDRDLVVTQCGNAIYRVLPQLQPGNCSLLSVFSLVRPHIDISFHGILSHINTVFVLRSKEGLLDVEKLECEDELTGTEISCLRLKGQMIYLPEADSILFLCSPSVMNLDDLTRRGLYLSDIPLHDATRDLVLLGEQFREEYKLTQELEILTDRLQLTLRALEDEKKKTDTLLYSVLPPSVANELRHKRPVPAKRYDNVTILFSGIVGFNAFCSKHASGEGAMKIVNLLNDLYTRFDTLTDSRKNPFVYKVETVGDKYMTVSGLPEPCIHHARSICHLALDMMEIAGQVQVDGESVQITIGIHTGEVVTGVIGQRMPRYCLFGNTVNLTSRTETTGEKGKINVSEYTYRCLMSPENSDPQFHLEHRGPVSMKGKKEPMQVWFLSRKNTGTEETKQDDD

SMILES | EC50
Cc1cc2c(c(-c3cccc(-n4ncc(C(=O)O)c4C(F)(F)F)n3)c1)C(Nc1ccc(C3CCN(C(=O)C4CC4)CC3)cc1C)CC2 (single isomer, unassigned; (+)) [43 (+), (+)-1-(6-(3-((4-(1-(Cyclopropanecarbonyl)piperidin-4-yl)-2-methylphenyl)amino)-6-methyl-2,3-dihydro-1H-inden-4-yl)pyridin-2-yl)-5-(trifluoromethyl)-1H-pyrazole-4-carboxylic acid] | 1 nM
Cc1cc(C2CCN(C(=O)C3CC3)CC2)ccc1NC1CCc2cccc(-c3cccc(-n4ncc(C(=O)O)c4C(F)F)n3)c21 (single isomer, unassigned; (-)) [(−)-53-4, (−)-1-(6-(3-((4-(1-(cyclopropanecarbonyl)piperidin-4-yl)-2-methylphenyl)amino)-2,3-dihydro-1H-inden-4-yl)pyridin-2-yl)-5-(difluoromethyl)-1H-pyrazole-4-carboxylic acid] | 24 nM
Cc1c(NC2CCc3cccc(-c4cccc(-n5ncc(C(=O)O)c5C)n4)c32)ccc(C2CCN(C(=O)CC3CC3)CC2)c1F (single isomer, unassigned) [Example (−) or (+)-46-4, 1-(6-(3-((4-(1-(2-cyclopropylacetyl)piperidin-4-yl)-3-fluoro-2-methylphenyl)amino)-2,3-dihydro-1H-inden-4-yl)pyridin-2-yl)-5-methyl-1H-pyrazole-4-carboxylic acid] | 136 nM
CCc1cc(CC2CCc3cccc(-c4cccc(-n5ncc(C(=O)O)c5CC)n4)c32)ccc1C1CCN(C(=O)[C@H](C)O)CC1 (single isomer, unassigned; (+)) [Example 39. b). (+)] | ≤ 0.5 nM
CCc1c(C(=O)O)cnn1-c1cccc(-c2cccc3c2N(Cc2ccc(C4CCN(C(=O)C5CC5)CC4)cc2C)CC3C)n1 (single isomer, unassigned; (-)) [(−)-20-2, (−)-1-(6-(1-(4-(1-(Cyclopropanecarbonyl)piperidin-4-yl)-2-methylbenzyl)-3-methylindolin-7-yl)pyridin-2-yl)-5-ethyl-1H-pyrazole-4-carboxylic acid] | 1 nM
CCC[C@H](O)C(=O)N1CCC(c2ccc(CC3CCc4cccc(-c5cccc(-n6ncc(C(=O)O)c6CC)n5)c43)c(C)c2)CC1 (single isomer, unassigned; (+)) [40-3 (+)] | ≤ 0.5 nM
Cc1cc(C2CCN(C(=O)C3CC3)CC2)ccc1NC1CCc2cccc(-c3cccc(-n4ncc(C(=O)O)c4C(F)(F)F)n3)c21 (single isomer, unassigned; (-)) [Example (−)-8. b), (−)-1-(6-(3-((4-(1-(cyclopropanecarbonyl)piperidin-4-yl)-2-methylphenyl)amino)-2,3-dihydro-1H-inden-4-yl)pyridin-2-yl)-5-(trifluoromethyl)-1H-pyrazole-4-carboxylic Acid] | 53 nM
CCc1cc(CC2CCc3cccc(-c4cccc(-n5ncc(C(=O)O)c5C)n4)c32)ccc1C1CCN(C(=O)C2CC2)CC1 (single isomer, unassigned; (-)) [38-2 (−), (−)-1-(6-(3-(4-(1-(cyclopropanecarbonyl)piperidin-4-yl)-3-ethylbenzyl)-2,3-dihydro-1H-inden-4-yl)pyridin-2-yl)-5-methyl-1H-pyrazole-4-carboxylic acid] | 9 nM
Cc1cc(C2CCN(C(=O)C3CC3)CC2)ccc1NC1CCc2cccc(-c3cccc(-n4ncc(C(=O)O)c4C(F)(F)F)n3)c21 (single isomer, unassigned; (+)) [Example (+)-8. b), (+)-1-(6-(3-((4-(1-(cyclopropanecarbonyl)piperidin-4-yl)-2-methylphenyl)amino)-2,3-dihydro-1H-inden-4-yl)pyridin-2-yl)-5-(trifluoromethyl)-1H-pyrazole-4-carboxylic acid] | ≤ 0.5 nM
CCc1cc(CN2CCc3cccc(-c4cccc(-n5ncc(C(=O)O)c5CC)n4)c32)ccc1C1CCN(C(=O)C2CC2)CC1 [Example 14, 1-(6-(1-(4-(1-(Cyclopropanecarbonyl)piperidin-4-yl)-3-ethylbenzyl)indolin-7-yl)pyridin-2-yl)-5-ethyl-1H-pyrazole-4-carboxylic Acid] | ≤ 0.5 nM
Cc1cc(C2CCN(C(=O)C3CC3)CC2)ccc1NC1CCc2cccc(-c3cccc(-n4ncc(C(=O)O)c4C(F)(F)F)c3)c21 (single isomer, unassigned; (-)) [Example 6. b). (−), (−)-1-(3-(3-((4-(1-(cyclopropanecarbonyl)piperidin-4-yl)-2-methylphenyl)amino)-2,3-dihydro-1H-inden-4-yl)phenyl)-5-(trifluoromethyl)-1H-pyrazole-4-carboxylic acid] | 24 nM
Cc1cc(C2CCN(C(=O)C3CC3)CC2)ccc1NC1CCc2cccc(-c3cccc(-n4ncc(C(=O)O)c4C)c3)c21 (single isomer, unassigned; (-)) [44 (−), (−)-1-(3-(3-((4-(1-(cyclopropanecarbonyl)piperidin-4-yl)-2-methylphenyl)amino)-2,3-dihydro-1H-inden-4-yl)phenyl)-5-methyl-1H-pyrazole-4-carboxylic acid] | 9.9 nM
CCc1cc(CN2CC(C)(C)c3cccc(-c4cccc(-n5ncc(C(=O)O)c5CC)n4)c32)ccc1C1CCN(C(=O)C2CC2)CC1 [Example 23] | 2 nM
CCC(=O)N1CCC(c2ccc(NC3CCc4cccc(-c5cccc(-n6ncc(C(=O)O)c6C)n5)c43)c(C)c2)CC1 (single isomer, unassigned) [(+)-46-2, (−)-5-Methyl-1-(6-(3-((2-methyl-4-(1-propionylpiperidin-4-yl)phenyl)amino)-2,3-dihydro-1H-inden-4-yl)pyridin-2-yl)-1H-pyrazole-4-carboxylic acid] | 1 nM
CCC[C@H](O)C(=O)N1CCC(c2ccc(CC3CCc4cccc(-c5cccc(-n6ncc(C(=O)O)c6CC)n5)c43)cc2CC)CC1 (single isomer, unassigned; (+)) [40-1 (+)] | ≤ 0.5 nM
Cc1c(NC2CCc3cccc(-c4cccc(-n5ncc(C(=O)O)c5C)n4)c32)ccc(C2CCN(C(=O)CC3CC3)CC2)c1F (single isomer, unassigned) [Example (+) or (−)-46-4, 1-(6-(3-((4-(1-(2-cyclopropylacetyl)piperidin-4-yl)-3-fluoro-2-methylphenyl)amino)-2,3-dihydro-1H-inden-4-yl)pyridin-2-yl)-5-methyl-1H-pyrazole-4-carboxylic acid] | 1.4 nM
Cc1c(C(=O)O)cnn1-c1cccc(-c2cccc3c2C(Nc2ccc(C4CCN(C(=O)C5CC5)CC4)cc2)CC3)n1 (single isomer, unassigned; (+)) [Example 9. b). (+), (+)-1-(6-(3-((4-(1-(cyclopropanecarbonyl)piperidin-4-yl)phenyl)amino)-2,3-dihydro-1H-inden-4-yl)pyridin-2-yl)-5-methyl-1H-pyrazole-4-carboxylic acid] | ≤ 0.5 nM
Cc1cc(C2CCN(C(=O)C3CC3)CC2)ccc1CC1CCc2cccc(-c3cccc(-n4ncc(C(=O)O)c4C)n3)c21 (single isomer, unassigned; (-)) [Example 37. b). (−), (−)-1-(6-(3-(4-(1-(cyclopropanecarbonyl)piperidin-4-yl)-2-methylbenzyl)-2,3-dihydro-1H-inden-4-yl)pyridin-2-yl)-5-methyl-1H-pyrazole-4-carboxylic Acid] | 6.3 nM

Further lines, results first:

EC50 | SMILES
≤ 0.5 nM | CCc1cc(O[C@H]2CCc3cccc(-c4cccc(-n5ncc(C(=O)O)c5CC)n4)c32)ccc1C1CCN(C(=O)[C@@H](C)CO)CC1 [Example 31-3, 5-Ethyl-1-(6-((S)-3-(3-ethyl-4-(1-((S)-3-hydroxy-2-methylpropanoyl)piperidin-4-yl)phenoxy)-2-3-dihydro-1H-inden-4-yl)pyridin-2-yl)-1H-pyrazole-4-carboxylic acid]
≤ 0.5 nM | CCc1cc(O[C@H]2CCc3cccc(-c4cccc(-n5ncc(C(=O)O)c5CC)n4)c32)ccc1C1CCN(C(=O)[C@@H](O)CC)CC1 [Example 31-2]
≤ 0.5 nM | CCOC(=O)N1CCC(c2ccc(NC3CCc4cccc(-c5cccc(-n6ncc(C(=O)O)c6C)n5)c43)c(C)c2)CC1 (stereo not drawn) [Example 52-4]
2.4 nM | O=C(O)c1cnn(-c2cccc(-c3cccc4c3C(Oc3ccc5c(c3)CCN(Cc3ccccn3)C5)CC4)n2)c1C(F)(F)F (single isomer, unassigned; (+)) [Example 4a, (+)-1-(6-(3-((2-(pyridin-2-ylmethyl)-1,2,3,4-tetrahydroisoquinolin-6-yl)oxy)-2,3-dihydro-1H-inden-4-yl)pyridin-2-yl)-5-(trifluoromethyl)-1H-pyrazole-4-carboxylic Acid]
≤ 0.5 nM | CCc1cc(O[C@H]2CCc3cccc(-c4cccc(-n5ncc(C(=O)O)c5CC)n4)c32)ccc1C1CCN(S(C)(=O)=O)CC1 [Example 64-8, (S)-5-Ethyl-1-(6-(3-(3-ethyl-4-(1-(methylsulfonyl)piperidin-4-yl)phenoxy)-2,3-dihydro-1H-inden-4-yl)pyridin-2-yl)-1H-pyrazole-4-carboxylic acid]
≤ 0.5 nM | CCc1c(C(=O)O)cnn1-c1cccc(-c2cccc3c2N(Cc2ccc(C4CCN(C(=O)C5CC5)CC4)cc2C)CC3)n1 [Example 21-2, 1-(6-(1-(4-(1-(Cyclopropanecarbonyl)piperidin-4-yl)-2-methylbenzyl)indolin-7-yl)pyridin-2-yl)-5-ethyl-1H-pyrazole-4-carboxylic acid]

Reference: US10550102B2, “Indane and indoline derivatives and the use thereof as soluble guanylate cyclase activators” (NOVARTIS AG, priority 2014, dated 2020)
